Data on two molecules can be found in publication PMC5046141, “Discovery of Isoquinolinoquinazolinones as a Novel Class of Potent PPARγ Antagonists with Anti-adipogenic Effects” (Scientific Reports, 2016).

The test has as its target T1, PPARγ2-LBD (Mus musculus, UniProt P37238).
T1 construct: mouse PPARγ2 (residues 230–505) were expressed as N-terminal GST-tagged proteins; made in house; host or cells: E. coli BL21(DE3)
T1 sequence (P37238 230-505): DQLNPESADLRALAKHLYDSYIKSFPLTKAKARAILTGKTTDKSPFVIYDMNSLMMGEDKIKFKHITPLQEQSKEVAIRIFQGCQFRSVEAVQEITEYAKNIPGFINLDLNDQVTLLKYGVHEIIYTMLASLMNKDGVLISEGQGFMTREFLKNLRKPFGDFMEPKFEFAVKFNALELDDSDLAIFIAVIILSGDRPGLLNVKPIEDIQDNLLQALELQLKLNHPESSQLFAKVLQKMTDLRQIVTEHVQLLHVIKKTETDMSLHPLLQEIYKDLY
Put plainly: Surface plasmon resonance binding to immobilized PPARγ2-LBD. To be noted: for Kd / kon / koff: SPR, 25 °C, PBS; for Kd: read-out: KD (equilibrium dissociation constant); for kon: read-out: ka (association rate constant); for koff: read-out: kd (dissociation rate constant). Here is the method: PPARγ2 protein was immobilized on the sensor chip, and the response (in resonance unit; RU) as a result of binding was continuously recorded and presented graphically as a function of time[25]. The association rate (ka also known as on rate (kon)), dissociation rate (kd also known as off rate (koff)), and equilibrium dissociation constant (KD) were calculated using the Scrubber 2 program (Table 2).
The recombinant ligand-binding domains (LBDs) of mouse PPARγ2 (residues 230–505) were expressed as N-terminal GST-tagged proteins using the pGEX4T3 vector. pGXE4T3-mPPARγ2-LBD plasmid was transfected into BL21(DE3) competent cells and the cells were grown in LB medium containing 50 μg/mL ampicillin at 37 °C to an O. D. 600 of 0.6–0.8. The expression of PPARγ2-LBD was induced by the addition of 0.2 mM isopropyl β-D-thiogalactoside (IPTG). After treatment for 24 h at 22 °C, the cells were harvested and disrupted using sonication buffer [25 mM HEPES (pH 7.5), 150 mM NaCl, 1% NP-40, 0.25% sodium deoxycholate, 10% glycerol, 25 mM NaF, 1 mM EDTA, 1 mM Na3VO4, 250 μM PMSF, 10 μg/mL leupeptin, and 10 μg/ml aprotinin]. The supernatant was applied to glutathione-Sepharose beads for 24 h at 4 °C. The bound GST fusion proteins were washed with the sonication buffer and eluted by elution buffer [25 mM glutathione, 50 mM Tris pH 8.8, 200 mM NaCl].
Immobilization of the protein on the hydrophilic carboxymethylated dextran matrix of the sensor chip (Reichert) was carried out using a standard primary amine coupling reaction. Free carboxyl groups on the surface were modified by injecting a mixture of 0.1 M 1-ethyl-3-(3-dimethylaminopropyl) carbodiimide hydrochloride and 0.05 M N-hydroxysuccinimide at a flow rate of 20 μL/min to generate a reactive succinimide ester surface. Baseline equilibration was achieved by flushing the chip with PBS buffer for 1–2 h. All of the SPR data was collected at 25 °C with PBS as running buffer at a constant flow of 30 μL/min. All the sensorgrams were processed by using automatic correction for nonspecific bulk refractive index effects. All the kinetic analyses of the binding to PPARγ2-LBD were calculated using the Scrubber2 program (Bio-Logic Software).
In general terms: In SPR one partner is held on a chip, and binding of the other changes the refractive index at the surface.

For the molecule `O=C(Nc1ccccc1)c1cc([N+](=O)[O-])ccc1Cl` [GW9662, reference compound], the Kd was 3.91 µM, the kon stood at 15.1 M⁻¹ s⁻¹ and the koff amounted to 5.9e-05 s⁻¹.
In the case of `COc1cc2cc3n(c(=O)c2cc1OC)CNc1cc(Cl)ccc1-3` [Compound 8o, 3-Chloro-10,11-dimethoxy-5H-isoquinolino[2,3-c]quinazolin-8(6H)-one], the Kd turned out to be 146 µM, the kon stood at 24 M⁻¹ s⁻¹ and the koff amounted to 0.00351 s⁻¹. Moreover, where the note is “ratio of KD values”, the “binding affinity relative to GW9662 (less than)” value turned out to be 37 folds and the “binding affinity relative to rosiglitazone (more than)” value worked out at 4 folds.

As a reminder, the Kd is the concentration at which binding is half-saturated.
